For experiment [1], the target named is T1, Lp-PLA2 enzyme in human plasma (Homo sapiens, UniProt Q13093).
T1 construct: from tissue; host or cells: mixed (pooled) human plasma
T1 sequence (Q13093 22-441): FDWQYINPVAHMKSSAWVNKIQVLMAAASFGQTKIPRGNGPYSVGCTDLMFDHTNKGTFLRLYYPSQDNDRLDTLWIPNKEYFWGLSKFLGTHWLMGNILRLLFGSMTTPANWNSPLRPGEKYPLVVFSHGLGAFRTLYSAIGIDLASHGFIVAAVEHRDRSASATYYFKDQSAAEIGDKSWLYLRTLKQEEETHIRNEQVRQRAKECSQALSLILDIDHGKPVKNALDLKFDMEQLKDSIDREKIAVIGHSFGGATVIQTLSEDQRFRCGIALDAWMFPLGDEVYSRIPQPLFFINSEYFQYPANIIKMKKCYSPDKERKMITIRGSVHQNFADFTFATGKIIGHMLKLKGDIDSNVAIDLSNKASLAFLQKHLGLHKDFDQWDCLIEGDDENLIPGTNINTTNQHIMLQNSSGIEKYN
Nature of the experiment: Human plasma Lp-PLA2 assay (Thio-PAF assay). It is filed as biochemical. Particulars: mixed human plasma, 2-thio-PAF substrate, CPM, 30-min pre-incubation, fluorescence ex 380/em 485; for IC50: read-out: Thio-PAF (pIC50) (converted). The procedure:
(2) Human Plasma Lp-PLA2 Assay (Also Known as Thio-PAF Assay) The human plasma assay was conducted using the […] analog of PAF (phosphatidylcholine). After hydrolysis, it would generate phospholipids containing free sulfhydryl groups, which would be subjected to Michael addition with CPM to generate fluorescence-enhancing maleimide. Continuous quantitative analysis of thiol could be conducted by detecting the fluorescence intensity. This assay can be used to detect the inhibitory activity of the Lp-PLA2 inhibitor on the Lp-PLA2 enzyme in human plasma. […] The plate was centrifuged at 500 rpm for 10 seconds. […] Two minutes later, the reaction was quenched with 5 μl of 5% trifluoroacetic acid.

The target in experiment [2] is T2, recombinant human Lp-PLA2 enzyme (Homo sapiens, UniProt Q13093).
T2 sequence (Q13093 22-441): T1 sequence (Q13093 22-441)
Nature of the experiment: Recombinant human Lp-PLA2 (rhLp-PLA2) assay (PED6 assay). As to conditions: PED6 substrate, enzyme 4 nM or 110 pM, 30-min pre-incubation, fluorescence ex 480/em 540; for IC50: read-out: rhLp-PLA2 (pIC50) (converted). It is filed as biochemical. On the procedure: (1) Recombinant Human Lp-PLA2 (rhLp-PLA2) Assay (Also Known as PED6 Assay) PED6 is a fluorescently labeled phospholipid, which could be purchased directly from Invitogene or Molecular Probes. PED6 has a fluorescence quenching […] and a Bodipy fluorescein (FL) group at the sn2 position. Once cleaved by an Lp-PLA2 enzyme, it will release the FL group, resulting in enhanced fluorescence. […] The plate was centrifuged at 500 rpm for 10 seconds.

Molecules are shown by their SMILES.

`O=c1nc(OCc2ccc(F)cc2F)cc2n1CC1CCCN2C1` (stereo not shown) [Compound 2]: the figures for the IC50 in experiment [1] and in experiment [2] were 31.6 nM and 2.51 nM, respectively.
Taken in the same sequence, the figures for `O=c1nc(OCc2cc(F)c(F)cc2F)cc2n1CC1CCCN2C1` (stereo not shown) [Compound 3] were 316 nM and 31.6 nM.
As for `O=c1nc(OCc2cc(F)cc(F)c2)cc2n1CC1CCCN2C1` (stereo not shown) [Compound 4], the IC50 in experiment [1] is 39.8 nM; in experiment [2] it was 3.16 nM.
Taken in the same sequence, the figures for `O=c1nc(OCc2cc(F)c(Oc3ccnc(C(F)(F)F)c3)c(F)c2)cc2n1CC1CCCN2C1` (stereo not shown) [Compound 5] were 3.16 nM and 0.0316 nM.
Taken in the same sequence, the figures for `Cc1cc(Oc2c(F)cc(COc3cc4n(c(=O)n3)CC3CCCN4C3)cc2F)ccn1` (stereo not shown) [Compound 6] were 6.31 nM and 0.0631 nM.
The like results for `Cc1ccc(Oc2c(F)cc(COc3cc4n(c(=O)n3)CC3CCCN4C3)cc2F)cn1` (stereo not shown) [Compound 7] were, in that order, 7.94 nM and 0.0794 nM.
For the compound `Cc1ncc(Oc2c(F)cc(COc3cc4n(c(=O)n3)CC3CCCN4C3)cc2F)cn1` (stereo not shown) [Compound 8], the IC50 in experiment [1] was 15.8 nM; in experiment [2], 0.316 nM.
Regarding `O=c1nc(OCc2cc(F)c(Oc3cnc(C(F)(F)F)nc3)c(F)c2)cc2n1CC1CCCN2C1` (stereo not shown) [Compound 9], the values for the IC50 in experiment [1] and in experiment [2] were 10 nM and 0.1 nM, respectively.
With `O=c1nc(OCc2cc(F)c(Oc3cccc(C(F)(F)F)c3)c(F)c2)cc2n1CC1CCCN2C1` (stereo not shown) [Compound 10], the IC50 in experiment [1] is 10 nM; in experiment [2], 0.126 nM.
`Cc1cc(Oc2c(F)cc(COc3cc4n(c(=O)n3)CC3CCCN4C3)cc2F)ccc1Cl` (stereo not shown) [Compound 11]: the figures for the IC50 in experiment [1] and in experiment [2] were 7.94 nM and 0.0794 nM, respectively.
As to `O=c1nc(OCc2cc(F)c(Oc3cccc(OC(F)(F)F)c3)c(F)c2)cc2n1CC1CCCN2C1` (stereo not shown) [Compound 12], the IC50 in experiment [1] was 15.8 nM; in experiment [2], 0.316 nM.
Consider `O=c1nc(OCc2cc(F)c(Oc3ccc(C(F)(F)F)cc3)c(F)c2)cc2n1CC1CCCN2C1` (stereo not shown) [Compound 13], for which the IC50 was 7.94 nM in experiment [1] and 0.0631 nM in experiment [2].
Taken in the same sequence, the figures for `O=c1nc(OCc2cc(F)c(Oc3ccc(Cl)c(C(F)(F)F)c3)c(F)c2)cc2n1CC1CCCN2C1` (stereo not shown) [Compound 14] were 6.31 nM and 0.0398 nM.
Consider `O=c1nc(OCc2cc(F)c(Oc3ccc(OC(F)(F)F)c(Cl)c3)c(F)c2)cc2n1CC1CCCN2C1` (stereo not shown) [Compound 15], for which the figures for the IC50 in experiment [1] and in experiment [2] were 12.6 nM and 0.2 nM, respectively.
Taken in the same sequence, the figures for `O=c1nc(OCc2cc(F)c(Oc3ccc(C(F)(F)F)c(Cl)c3)c(F)c2)cc2n1CC1CCCN2C1` (stereo not shown) [Compound 16] were 7.94 nM and 0.0794 nM.
For the compound `Cc1ccc(Oc2c(F)cc(COc3cc4n(c(=O)n3)C[C@H]3CCCN4C3)cc2F)cn1` [Compound 18], the results for the IC50 in experiment [1] and in experiment [2] were 7.94 nM and 0.0794 nM, respectively.
For `O=c1nc(OCc2cc(F)c(Oc3cccc(C(F)(F)F)c3)c(F)c2)cc2n1C[C@H]1CCCN2C1` [Compound 20], the IC50 is 3.16 nM in experiment [1] and 0.0316 nM in experiment [2].
With `O=c1nc(OCc2cc(F)cc(F)c2)cc2n1C[C@H]1CCCN2C1` [Compound 21], the IC50 in experiment [1] was 39.8 nM; in experiment [2] it was 3.16 nM.
Taken in the same sequence, the figures for `O=c1nc(OCc2cc(F)c(F)cc2F)cc2n1C[C@H]1CCCN2C1` [Compound 22] were 316 nM and 31.6 nM.
Taken in the same sequence, the figures for `Cc1ccc(Oc2c(F)cc(COc3cc4n(c(=O)n3)C[C@@H]3CCCN4C3)cc2F)cn1` [Compound 24] were 7.94 nM and 0.1 nM.
Take `O=c1nc(OCc2cc(F)c(Oc3cccc(C(F)(F)F)c3)c(F)c2)cc2n1C[C@@H]1CCCN2C1` [Compound 26]: the IC50 in experiment [1] was 3.98 nM; in experiment [2], 0.0398 nM.
For `O=c1nc(OCc2cc(F)cc(F)c2)cc2n1C[C@H]1CCCN2C1` [Compound 27], the IC50 in experiment [1] was 50.1 nM. The “rhLp-PLA2 (pIC50)” value in experiment [2] was found to be 8.5.
For the compound `O=c1nc(OCc2cc(F)c(F)cc2F)cc2n1C[C@H]1CCCN2C1` [Compound 28], the “Thio-PAF (pIC50)” value in experiment [1] is 6.5. In experiment [2], the IC50 is 39.8 nM.
With `Cc1ccc(Oc2c(F)cc(COc3cc4n(c(=O)n3)C[C@@H]3CN4CCO3)cc2F)cn1` [Compound 30], the IC50 is 10 nM in experiment [1] and 0.158 nM in experiment [2].
On to `O=c1nc(OCc2cc(F)cc(F)c2)cc2n1C[C@@H]1CN2CCO1` [Compound 33], for which the IC50 in experiment [1] is 79.4 nM; in experiment [2], 3.98 nM.
As to `O=c1nc(OCc2cc(F)c(F)cc2F)cc2n1C[C@@H]1CN2CCO1` [Compound 34], the IC50 is 501 nM in experiment [1] and 63.1 nM in experiment [2].
The like results for `Cc1ccc(Oc2c(F)cc(COc3cc4n(c(=O)n3)C[C@H]3CN4CCO3)cc2F)cn1` [Compound 36] were, in that order, 12.6 nM and 0.126 nM.
For `O=c1nc(OCc2cc(F)cc(F)c2)cc2n1C[C@@H]1CN2CCO1` [Compound 39], the IC50 in experiment [1] was 100 nM. Also, the “rhLp-PLA2 (pIC50)” value in experiment [2] is on record as 8.4.
As for `O=c1nc(OCc2cc(F)c(F)cc2F)cc2n1C[C@@H]1CN2CCO1` [Compound 40], the “Thio-PAF (pIC50)” value in experiment [1] is recorded as 6.3. For the same compound, the IC50 in experiment [2] was 50.1 nM.

The values are drawn from patent US12630551B2, “Endocyclic pyrimidinone compounds, and preparation methods, compositions and use thereof” (NEUSCO BIOTECH LIMITED, priority 2020, dated 2026).
